ChEMBL document CHEMBL1201862, “PubChem BioAssay data set” (2004)
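Growth conditions: 96-well plates. Treatment: test compound, 48 hours, 5 concentrations. Analysis: linear interpolation between bracketing concentrations; unreached endpoints set to highest concentration. At the GI50, growth is halved.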 Active and inactive are the calls of the source. Rule as the data show it: active = GI50 up to about 1.1 µM and inactive = higher.

Experiments:
Experiment in all cases: NCI tumour cell line growth inhibition, 48 h
786-0 = tested on: 786-0
A498 = tested on: A498
A549 = tested on: A549
ACHN = tested on: ACHN
BT-549 = tested on: BT-549
CAKI-1 = tested on: CAKI-1
CCRF-CEM = tested on: CCRF-CEM
COLO 205 = tested on: COLO 205
DU-145 = tested on: DU-145
EKVX = tested on: EKVX
HCT-116 = tested on: HCT-116
HCT-15 = tested on: HCT-15
HL-60 = tested on: HL-60
HOP-62 = tested on: HOP-62
HOP-92 = tested on: HOP-92
HT-29 = tested on: HT-29
Hs-578T = tested on: Hs-578T
IGROV-1 = tested on: IGROV-1
K562 = tested on: K562
KM12 = tested on: KM12
LOX IMVI = tested on: LOX IMVI
M14 = tested on: M14
MCF7 = tested on: MCF7
MDA-MB-231 = tested on: MDA-MB-231
MDA-MB-435 = tested on: MDA-MB-435
MDA-N = tested on: MDA-N
MOLT-4 = tested on: MOLT-4
Malme-3M = tested on: Malme-3M
NCI-H23 = tested on: NCI-H23
NCI-H460 = tested on: NCI-H460
NCI-H522 = tested on: NCI-H522
NCI/ADR-RES = tested on: NCI/ADR-RES
OVCAR-3 = tested on: OVCAR-3
OVCAR-4 = tested on: OVCAR-4
OVCAR-5 = tested on: OVCAR-5
OVCAR-8 = tested on: OVCAR-8
PC-3 = tested on: PC-3
RXF 393 = tested on: RXF 393
SF-268 = tested on: SF-268
SF-295 = tested on: SF-295
SF-539 = tested on: SF-539
SK-MEL-28 = tested on: SK-MEL-28
SK-MEL-2 = tested on: SK-MEL-2
SK-MEL-5 = tested on: SK-MEL-5
SK-OV-3 = tested on: SK-OV-3
SN12C = tested on: SN12C
SNB-19 = tested on: SNB-19
SNB-75 = tested on: SNB-75
SR = tested on: SR
SW-620 = tested on: SW-620
T47D = tested on: T47D
TK-10 = tested on: TK-10
U-251 = tested on: U-251
UACC-257 = tested on: UACC-257
UACC-62 = tested on: UACC-62
UO-31 = tested on: UO-31
NCI-H226 = tested on: NCI-H226
RPMI-8226 = tested on: RPMI-8226
HCC 2998 = tested on: HCC 2998

## COC(=O)C1=C(C(=O)OC)C2(/N=C(\Nc3ccccc3)c3ccccc3)N(c3ccc(OC)cc3)CC(c3ccccc3)N2O1 (configuration not stated)
786-0
  GI50: > 100 µM (inactive)
A498
  GI50: > 100 µM (inactive)
A549
  GI50: > 100 µM (inactive)
ACHN
  GI50: > 100 µM (inactive)
BT-549
  GI50: > 100 µM (inactive)
CAKI-1
  GI50: > 100 µM (inactive)
CCRF-CEM
  GI50: > 100 µM (inactive)
COLO 205
  GI50: > 100 µM (inactive)
DU-145
  GI50: > 100 µM (inactive)
EKVX
  GI50: > 100 µM (inactive)
HCT-116
  GI50: > 100 µM (inactive)
HCT-15
  GI50: > 100 µM
HL-60
  GI50: > 100 µM (inactive)
HOP-62
  GI50: > 100 µM (inactive)
HOP-92
  GI50: 53.6 µM (inactive)
HT-29
  GI50: > 100 µM (inactive)
Hs-578T
  GI50: > 100 µM (inactive)
IGROV-1
  GI50: > 100 µM (inactive)
K562
  GI50: > 100 µM (inactive)
KM12
  GI50: > 100 µM (inactive)
LOX IMVI
  GI50: > 100 µM (inactive)
M14
  GI50: > 100 µM (inactive)
MCF7
  GI50: > 100 µM (inactive)
MDA-MB-231
  GI50: > 100 µM (inactive)
MDA-MB-435
  GI50: > 100 µM (inactive)
MDA-N
  GI50: > 100 µM (inactive)
MOLT-4
  GI50: > 100 µM (inactive)
Malme-3M
  GI50: > 100 µM (inactive)
NCI-H23
  GI50: > 100 µM (inactive)
NCI-H460
  GI50: > 100 µM (inactive)
NCI-H522
  GI50: > 100 µM (inactive)
NCI/ADR-RES
  GI50: > 100 µM (inactive)
OVCAR-3
  GI50: > 100 µM (inactive)
OVCAR-4
  GI50: > 100 µM (inactive)
OVCAR-5
  GI50: > 100 µM (inactive)
OVCAR-8
  GI50: > 100 µM (inactive)
PC-3
  GI50: > 100 µM (inactive)
RXF 393
  GI50: > 100 µM (inactive)
SF-268
  GI50: > 100 µM (inactive)
SF-295
  GI50: > 100 µM (inactive)
SF-539
  GI50: > 100 µM (inactive)
SK-MEL-28
  GI50: > 100 µM (inactive)
SK-MEL-2
  GI50: > 100 µM (inactive)
SK-MEL-5
  GI50: > 100 µM (inactive)
SK-OV-3
  GI50: > 100 µM (inactive)
SN12C
  GI50: > 100 µM (inactive)
SNB-19
  GI50: > 100 µM (inactive)
SNB-75
  GI50: 32.3 µM (inactive)
SR
  GI50: > 100 µM (inactive)
SW-620
  GI50: > 100 µM (inactive)
T47D
  GI50: > 100 µM (inactive)
TK-10
  GI50: > 100 µM (inactive)
U-251
  GI50: > 100 µM (inactive)
UACC-257
  GI50: > 100 µM (inactive)
UACC-62
  GI50: > 100 µM (inactive)
UO-31
  GI50: > 100 µM (inactive)

## N=C(N)SCCN1CCCCC1
786-0
  GI50: 22.3 µM (inactive)
A498
  GI50: 48.6 µM (inactive)
A549
  GI50: 56 µM (inactive)
ACHN
  GI50: 25.6 µM (inactive)
BT-549
  GI50: 25.1 µM (inactive)
CAKI-1
  GI50: 26.7 µM (inactive)
COLO 205
  GI50: > 100 µM (inactive)
DU-145
  GI50: 24.7 µM (inactive)
EKVX
  GI50: 60.3 µM (inactive)
HCT-116
  GI50: 26.7 µM (inactive)
HCT-15
  GI50: 25.6 µM
HL-60
  GI50: 21.2 µM (inactive)
HOP-62
  GI50: 46.5 µM (inactive)
HOP-92
  GI50: 27.9 µM (inactive)
HT-29
  GI50: 29.9 µM (inactive)
Hs-578T
  GI50: 11.7 µM (inactive)
IGROV-1
  GI50: 36.6 µM (inactive)
K562
  GI50: 20 µM (inactive)
KM12
  GI50: 40.6 µM (inactive)
LOX IMVI
  GI50: 20.2 µM (inactive)
M14
  GI50: 19.9 µM (inactive)
MCF7
  GI50: 16.6 µM (inactive)
MDA-MB-231
  GI50: 22.8 µM (inactive)
MDA-MB-435
  GI50: 19.4 µM (inactive)
MDA-N
  GI50: 30.2 µM (inactive)
MOLT-4
  GI50: 20.6 µM (inactive)
Malme-3M
  GI50: 12.5 µM (inactive)
NCI-H226
  GI50: 21.4 µM (inactive)
NCI-H23
  GI50: 26.1 µM (inactive)
NCI-H460
  GI50: 32.7 µM (inactive)
NCI-H522
  GI50: 7.5 µM (inactive)
NCI/ADR-RES
  GI50: 29.2 µM (inactive)
OVCAR-3
  GI50: 22.2 µM (inactive)
OVCAR-4
  GI50: 31.6 µM (inactive)
OVCAR-5
  GI50: 86.1 µM (inactive)
OVCAR-8
  GI50: 28.6 µM (inactive)
PC-3
  GI50: 15.9 µM (inactive)
RPMI-8226
  GI50: 14.1 µM (inactive)
RXF 393
  GI50: 16.1 µM (inactive)
SF-268
  GI50: 24.4 µM (inactive)
SF-295
  GI50: > 100 µM (inactive)
SF-539
  GI50: 35.7 µM (inactive)
SK-MEL-28
  GI50: 28.5 µM (inactive)
SK-MEL-2
  GI50: 2.98 µM (inactive)
SK-MEL-5
  GI50: 48 µM (inactive)
SK-OV-3
  GI50: 46.8 µM (inactive)
SN12C
  GI50: 26.3 µM (inactive)
SNB-75
  GI50: 37.4 µM (inactive)
SR
  GI50: 21 µM (inactive)
SW-620
  GI50: 29.8 µM (inactive)
T47D
  GI50: 27.5 µM (inactive)
TK-10
  GI50: 43.7 µM (inactive)
U-251
  GI50: 19.9 µM (inactive)
UACC-257
  GI50: 18.6 µM (inactive)
UACC-62
  GI50: 23.4 µM (inactive)
UO-31
  GI50: 25.5 µM (inactive)

## Cc1ccc(-c2cc(=O)c(=O)[nH][nH]2)cc1
786-0
  GI50: > 100 µM (inactive)
A498
  GI50: > 100 µM (inactive)
A549
  GI50: > 100 µM (inactive)
ACHN
  GI50: > 100 µM (inactive)
BT-549
  GI50: > 100 µM (inactive)
CAKI-1
  GI50: > 100 µM (inactive)
CCRF-CEM
  GI50: > 100 µM (inactive)
COLO 205
  GI50: > 100 µM (inactive)
DU-145
  GI50: > 100 µM (inactive)
EKVX
  GI50: > 100 µM (inactive)
HCC 2998
  GI50: > 100 µM (inactive)
HCT-116
  GI50: > 100 µM (inactive)
HCT-15
  GI50: > 100 µM
HOP-62
  GI50: > 100 µM (inactive)
HOP-92
  GI50: > 100 µM (inactive)
HT-29
  GI50: > 100 µM (inactive)
Hs-578T
  GI50: 68.4 µM (inactive)
IGROV-1
  GI50: 45.1 µM (inactive)
K562
  GI50: > 100 µM (inactive)
KM12
  GI50: > 100 µM (inactive)
LOX IMVI
  GI50: > 100 µM (inactive)
M14
  GI50: > 100 µM (inactive)
MCF7
  GI50: > 100 µM (inactive)
MDA-MB-231
  GI50: > 100 µM (inactive)
MDA-MB-435
  GI50: > 100 µM (inactive)
MDA-N
  GI50: > 100 µM (inactive)
MOLT-4
  GI50: > 100 µM (inactive)
NCI-H226
  GI50: > 100 µM (inactive)
NCI-H23
  GI50: > 100 µM (inactive)
NCI-H460
  GI50: > 100 µM (inactive)
NCI-H522
  GI50: 36.9 µM (inactive)
NCI/ADR-RES
  GI50: > 100 µM (inactive)
OVCAR-3
  GI50: > 100 µM (inactive)
OVCAR-4
  GI50: > 100 µM (inactive)
OVCAR-5
  GI50: > 100 µM (inactive)
OVCAR-8
  GI50: > 100 µM (inactive)
PC-3
  GI50: > 100 µM (inactive)
RXF 393
  GI50: > 100 µM (inactive)
SF-268
  GI50: > 100 µM (inactive)
SF-295
  GI50: > 100 µM (inactive)
SF-539
  GI50: > 100 µM (inactive)
SK-MEL-28
  GI50: > 100 µM (inactive)
SK-MEL-2
  GI50: > 100 µM (inactive)
SK-MEL-5
  GI50: > 100 µM (inactive)
SK-OV-3
  GI50: > 100 µM (inactive)
SN12C
  GI50: > 100 µM (inactive)
SNB-75
  GI50: 18 µM (inactive)
SR
  GI50: > 100 µM (inactive)
SW-620
  GI50: > 100 µM (inactive)
T47D
  GI50: > 100 µM (inactive)
TK-10
  GI50: > 100 µM (inactive)
U-251
  GI50: > 100 µM (inactive)
UACC-257
  GI50: > 100 µM (inactive)
UACC-62
  GI50: > 100 µM (inactive)
UO-31
  GI50: > 100 µM (inactive)
